For data set [1], the system named is Leishmania infantum. Kind of data set: Antileishmanial activity against stationary phase of Leishmania infantum MHOM/MA/67/ITMAP263 promastigotes infected in BALB/c mouse assessed as decrease in parasitic load in liver at 50 mg/kg/day administered orally via gavage as bid for 5 days on 7th day post infection and measured on day 30 by limiting dilution assay relative to control. It is filed as functional. Particulars: MHOM/MA/67/ITMAP263, po.

Data set [2] has as its system Leishmania infantum. The data set is described as follows: Antileishmanial activity against Leishmania infantum MHOM/MA/67/ITMAP263 promastigotes infected in BALB/c mouse peritoneal macrophages assessed as decrease in parasitic infection index at 48 uM incubated for 72 hrs by light microscopy relative to control. It is filed as functional. To be noted: MHOM/MA/67/ITMAP263, 72 h.

Data set [3] concerns Leishmania infantum. The data set is described as follows: Antileishmanial activity against stationary phase of Leishmania infantum MHOM/MA/67/ITMAP263 infected in BALB/c mouse assessed as decrease in parasitic load in liver at 12.5 mg/kg/day administered orally via gavage as bid for 5 days on 7th day post infection and measured on day 30 by limiting dilution assay relative to control. It is filed as functional. Particulars: MHOM/MA/67/ITMAP263, po.

For data set [4], the system named is Leishmania infantum. The data set is described as follows: Antileishmanial activity against stationary phase of Leishmania infantum MHOM/MA/67/ITMAP263 infected in BALB/c mouse assessed as decrease in parasitic load in liver at 25 mg/kg/day administered orally via gavage as bid for 5 days on 7th day post infection and measured on day 30 by limiting dilution assay relative to control. It is filed as functional. Particulars: MHOM/MA/67/ITMAP263, po.

In data set [5] the test system is Leishmania infantum. Kind of data set: Antileishmanial activity against Leishmania infantum MHOM/MA/67/ITMAP263 promastigotes infected in BALB/c mouse peritoneal macrophages assessed as decrease in parasitic infection index incubated for 72 hrs by light microscopy. It is filed as functional, organism-based.
For data set [6], the system named is Leishmania infantum. Kind of data set: Antileishmanial activity against stationary phase of Leishmania infantum MHOM/MA/67/ITMAP263 promastigotes infected in orally dosed BALB/c mouse assessed as decrease in parasitic load in liver administered via gavage bid for 5 days on 7th day post infection and measured on day 30 by limiting dilution assay. It is filed as functional.

Data set [7] in a line: Selectivity index, ratio of CC50 for mouse peritoneal macrophages to EC50 for Leishmania infantum MHOM/MA/67/ITMAP263 promastigotes infected in BALB/c mouse peritoneal macrophages. Particulars: read-out: Ratio CC50/EC50. It is filed as toxicity.
Data set [8] relates to Leishmania infantum. The data set is described as follows: Antileishmanial activity against stationary phase of Leishmania infantum MHOM/MA/67/ITMAP263 promastigotes infected in BALB/c mouse assessed as decrease in parasitic load in liver at 50 mg Sb5+/kg/day, im once daily for 5 days on 7th day post infection and measured on day 30 by limiting dilution assay. It is filed as functional, organism-based.

pEC50: −log10 of the molar value. The source made the active and inactive calls. The rule behind the calls is not given here.

As a reminder, the inhibition in vivo is the drop in the measured response relative to a control, in per cent. By inhibition is commonly meant the change of the read-out against control, counted positive when it falls. What is called pEC50 is the negative decadic logarithm of the EC50, by convention in mol/L. The ED50 is the dose that gives a 50% effect, or the effect in half of the subjects. On to `O=C(O[C@@H]1Cc2c(O)cc(O)cc2O[C@@H]1c1cc(O)c(O)c(O)c1)c1cc(O)c(O)c(O)c1` [EPIGALOCATECHIN GALLATE], for which the inhibition in vivo at 50 mg/kg/day with Leishmania infantum [1] came out at 98.7%. Besides, the inhibition at 48 µM in the data set on Leishmania infantum [2] was determined as 97.7%. In the data set on Leishmania infantum [3], the inhibition in vivo at 12.5 mg/kg/day is 47.5%. Also, the inhibition in vivo at 25 mg/kg/day in the data set with Leishmania infantum [4] turned out to be 93.6%. In addition, in the data set with Leishmania infantum [5], the inhibition entry was “Dose-dependent effect”. Further, the negative logarithm of the EC50 (pEC50) in the data set with Leishmania infantum [5] (MHOM/MA/67/ITMAP263, 72 h) was 5.59. Moreover, the inhibition entry in the data set on Leishmania infantum [6] is “Dose-dependent effect”. In the data set with Leishmania infantum [6] (MHOM/MA/67/ITMAP263, po), the ED50 is 12.4 mg/kg/day and the ED90 is 21.5 mg/kg/day. The selectivity ratio in data set [7] came out at 168.
As to Meglumine antimoniate, the inhibition entry in the data set on Leishmania infantum [8] was “Active”.

The values above are taken from ChEMBL document CHEMBL4414580, “(-)-Epigallocatechin 3-O-Gallate as a New Approach for the Treatment of Visceral Leishmaniasis” (J Nat Prod, 2019).
